# Paper PMC9166766 (Experimental & Molecular Medicine, 2022)
# No end group written: not given here.
# Tested on: CNAβ2 (calcineurin catalytic subunit)
# Experiment: Mammalian two-hybrid assay (VP16 AD-CNAβ2 and GAL4 DBD-peptides, pG5-luc) in HEK293T cells
# Type: cell-based
# Procedure: To measure the transcriptional activity of NFAT, we cotransfected Jurkat T cells with GST-tagged peptides and NFAT-luc by electroporation. After 24 h, we pretreated the cells with 0.5 μM FK506 for 1 h and then treated them with 40 nM PMA and 1 μM ionomycin for 8 h. For the mammalian two-hybrid assay, we cotransfected HEK293T cells with GAL4 DBD-tagged CABIN1, VIVIT, chimeric and substituted peptides, VP16 activation domain-tagged CNAβ2, and pG5-luc (luciferase reporter plasmid containing the GAL4-responsive promoter) for 24 h. We lysed the harvested cells with a luciferase assay lysis buffer (17 mM KH2PO4, 183 mM K2HPO4, pH 7.8, 0.2% [v/v] Triton X-100) and sonicated them briefly. We measured luciferase activity for each cell lysate using an Infinite M200 (Tecan, Männedorf, Switzerland). In addition, we confirmed the expression level of the transfected proteins by Western blotting.
# A mammalian two-hybrid assay using these peptides was performed (bottom). The compositions of the transfected DNA are described in Supplementary Fig. 1a–c. All experiments were repeated three times and are presented as the mean ± standard deviation. […] SE short exposure, LE long exposure, NC negative control, WT wild-type.
# NC negative control, WT wild-type.
substance,measurement,setting,value
"CABIN1-L-1-2: 10 amino acids from proline 2146 to proline 2155 of full-length CABIN1; expressed GST-, GAL4 DBD- or HA-mCherry-tagged (PEITVTPPTP; also: expressed GST-, GAL4 DBD- or HA-mCherry-tagged, end not given here)",interaction with / binding affinity to CNA (mammalian two-hybrid),"CNAβ2, 24 h, repeated three times",still bound to CNA
same,"interaction with CNA, effect of 1 μM ionomycin",with or without 1 μM ionomycin,did not affect the interaction
